Results on 4 compounds are retold here after PMC5340622 (Cancer discovery, 2016).

Series [1] deals with WT and mutant cell lines (MCF7). Kind of series: Proliferation of WT and mutant ER MCF7 cell lines with other SERDs. In kind it is cell-based. To be noted: WT and all mutant cell lines.
Another series in a line: in vivo. To be noted: mouse, serum, other: AZD9496 oral (gavage); fulvestrant subcutaneous.
For another series, the system named is MCF7 WT cells. Kind of series: Proliferation assay. In kind it is cell-based. Conditions: Homo sapiens, MCF7, read-out: IC50, growth inhibition.
For a further series, the system named is S463P mutant ER. Kind of series: ERE-luciferase inhibition, doxycycline-induced S463P ER in MCF7 cells. To be noted: MCF7, regular medium. In kind it is cell-based.
The subject of a further series is E380Q mutant ER. Kind of series: ERE-luciferase inhibition, doxycycline-induced E380Q ER in MCF7 cells. In kind it is cell-based. To be noted: MCF7, regular medium.
Series [2] concerns MCF7 inducible HA-ER E380Q tumors. Kind of series: MCF7 inducible HA-ER E380Q xenograft. In kind it is in vivo, mice. Conditions: fulvestrant 200mg/kg twice weekly s.c.
The test system of series [3] is MCF7 inducible HA-ER S463P tumors. Kind of series: MCF7 inducible HA-ER S463P xenograft. In kind it is in vivo, mice. Conditions: fulvestrant 200mg/kg twice weekly s.c.
Series [4] relates to MCF7 inducible HA-ER WT tumors. Kind of series: MCF7 inducible HA-ER WT xenograft. In kind it is in vivo, mice. To be noted: fulvestrant 200mg/kg twice weekly s.c.

As to `C[C@@H]1Cc2c([nH]c3ccccc23)[C@@H](c2c(F)cc(/C=C/C(=O)O)cc2F)N1CC(C)(C)F` [AZD9496, (E)-3-(3,5-Difluoro-4-((1R,3R)-2-(2-fluoro-2-methylpropyl)-3-methyl-2,3,4,9-tetra hydro-1H–pyrido[3,4-b]indol-1-yl)phenyl)acrylic Acid], the “inhibition of cell proliferation” value in series [1] is on record as “capable of inhibiting cell proliferation by all mutants”. In the series “in vivo”, this compound returned an exposure (AUC) of 218 µM·h and a Cmax of 59 µM. Moreover, in the series with MCF7 WT cells, the IC50 was found to be 0.4 nM.

For `CC/C(=C(/c1ccc(/C=C/C(=O)O)cc1)c1ccc2[nH]ncc2c1)c1ccc(F)cc1Cl` [GDC-0810], in series [1], the “inhibition of cell proliferation” value is given as “capable of inhibiting cell proliferation by all mutants”.

In the case of `C[C@]12C[C@H](c3ccc(OCCCCCS(=O)(=O)CCCC(F)(F)C(F)(F)F)cc3)[C@@H]3c4ccc(O)cc4CC[C@H]3[C@@H]1CC[C@@H]2O` [RU58668], the “inhibition of cell proliferation” value in series [1] is on record as “capable of inhibiting cell proliferation by all mutants”.

Regarding `C[C@]12CC[C@@H]3c4ccc(O)cc4C[C@@H](CCCCCCCCC[S+]([O-])CCCC(F)(F)C(F)(F)F)[C@H]3[C@@H]1CC[C@@H]2O` (some centres unmarked) [fulvestrant], the “fold higher IC99 as compared to WT” value in the series on S463P mutant ER and in the series on E380Q mutant ER was 2 fold in each case. Moreover, the AUC in the series “in vivo” was 5.29 µM·h. This compound also yielded a Cmax in “in vivo” of 0.65 µM. The tumor growth inhibition entry in series [2], in series [3] and in series [4] was “fully inhibited the growth” each time. In addition, the IC50 with MCF7 WT cells is 0.4 nM.
